Test results as given in PubChem BioAssay AID192 (DTP/NCI, 2004).
Where “and” joins values, the source holds several entries; their conditions need not be identical. Equal entries are not always repeated. Toxic doses and inconclusive results are not listed. The calls were made as follows: active = survival T/C of 150% or more; inactive = T/C below 125% in these data.

System: BDF1 mice, B16 melanoma ip, median survival T/C
Assay: NCI In Vivo Anticancer Drug Screen. Data for tumor model B16 Melanoma (intraperitoneal) in B6D2F1 (BDF1) mice
Details: endpoint: median survival time, higher = longer survival
Experimental: The antitumor activity of compounds was measured in mice bearing transplantable tumors. Survival or tumor size were measured and the results are expressed as the measurement made in the treated group (T) divided by the measurement made in the vehicle treated control group (C). The tumor model used in this assay is B16 Melanoma (intraperitoneal) in B6D2F1 (BDF1) mice

[1] = dose: 6.25 mg/kg/injection, schedule: Q01DX009 (ip), vehicle: saline
[2] = dose: 12.5 mg/kg/injection, schedule: Q01DX009 (ip), vehicle: saline
[3] = dose: 25.0 mg/kg/injection, schedule: Q01DX009 (ip), vehicle: saline
[4] = dose: 50.0 mg/kg/injection, schedule: Q01DX009 (ip), vehicle: saline
[5] = dose: 100.0 mg/kg/injection, schedule: Q01DX009 (ip), vehicle: Klucel (hydroxypropylcellulose) (HPC)
[6] = dose: 200.0 mg/kg/injection, schedule: Q01DX009 (ip), vehicle: Klucel (hydroxypropylcellulose) (HPC)
[7] = dose: 400.0 mg/kg/injection, schedule: Q01DX009 (ip), vehicle: Klucel (hydroxypropylcellulose) (HPC)
[8] = dose: 50.0 mg/kg/injection, schedule: Q01DX009 (ip), vehicle: Klucel (hydroxypropylcellulose) (HPC)
[9] = dose: 6.25 mg/kg/injection, schedule: Q01DX009 (ip), vehicle: saline with Tween-80
[10] = dose: 12.5 mg/kg/injection, schedule: Q01DX009 (ip), vehicle: saline with Tween-80
[11] = dose: 25.0 mg/kg/injection, schedule: Q01DX009 (ip), vehicle: saline with Tween-80
[12] = dose: 50.0 mg/kg/injection, schedule: Q01DX009 (ip), vehicle: saline with Tween-80
[13] = dose: 50.0 mg/kg/injection, schedule: Q04DX003 (ip), vehicle: saline
[14] = dose: 100.0 mg/kg/injection, schedule: Q01DX009 (ip), vehicle: saline with Tween-80

Measured: T/C

CCN1C(=O)CC2(CCN(C)CC2)C1=O
inactive: dose: 0.78 mg/kg/injection, schedule: Q01DX009 (ip), vehicle: saline 122 % of control | dose: 1.56 mg/kg/injection, schedule: Q01DX009 (ip), vehicle: saline 117 % of control | dose: 3.12 mg/kg/injection, schedule: Q01DX009 (ip), vehicle: saline 103 % of control | [1] 108 % of control | [2] 108 % of control | [3] 102 % of control | [4] 98 % of control | dose: 100.0 mg/kg/injection, schedule: Q01DX009 (ip), vehicle: saline 96 % of control

COC(=O)[C@@H]1[C@H](O)[C@H](C)[C@H](O)[C@H](C)/C=C\C=C(C)C(=O)Nc2c(C)c(OC(C)=O)c3c(c2O)C(=O)C(C)=C2OCOC(=C23)C(C)=C[C@@](C)(O)[C@H](O)[C@@H](C)[C@H]1OC(C)=O
inactive: [5] 104 % of control | dose: 100.0 mg/kg/injection, schedule: Q01DX009 (ip), vehicle: carboxymethylcellulose (CMC) 103 % of control | [6] 94 % of control | dose: 200.0 mg/kg/injection, schedule: Q01DX009 (ip), vehicle: carboxymethylcellulose (CMC) 123 % of control | dose: 400.0 mg/kg/injection, schedule: Q01DX009 (ip), vehicle: carboxymethylcellulose (CMC) 97 % of control

CCOC(=O)c1cncc(C(=O)OCC)c1
inactive: [5] 107 % of control | [6] 113 % of control | [7] 106 % of control

O=c1cc[nH]c(=O)[nH]1
inactive: dose: 32.0 mg/kg/injection, schedule: Q01DX009 (ip), vehicle: Klucel (hydroxypropylcellulose) (HPC) 99 % of control and 100 % of control | dose: 32.0 mg/kg/injection, schedule: Q01DX009 (ip), vehicle: saline with Tween-80 93 % of control | dose: 64.0 mg/kg/injection, schedule: Q01DX009 (ip), vehicle: Klucel (hydroxypropylcellulose) (HPC) 98 % of control and 106 % of control | dose: 64.0 mg/kg/injection, schedule: Q01DX009 (ip), vehicle: saline with Tween-80 93 % of control | dose: 128.0 mg/kg/injection, schedule: Q01DX009 (ip), vehicle: Klucel (hydroxypropylcellulose) (HPC) 101 % of control and 106 % of control | dose: 128.0 mg/kg/injection, schedule: Q01DX009 (ip), vehicle: saline with Tween-80 98 % of control | dose: 256.0 mg/kg/injection, schedule: Q01DX009 (ip), vehicle: Klucel (hydroxypropylcellulose) (HPC) 100 % of control and 102 % of control | dose: 256.0 mg/kg/injection, schedule: Q01DX009 (ip), vehicle: saline with Tween-80 90 % of control | dose: 512.0 mg/kg/injection, schedule: Q01DX009 (ip), vehicle: Klucel (hydroxypropylcellulose) (HPC) 102 % of control and 105 % of control | dose: 512.0 mg/kg/injection, schedule: Q01DX009 (ip), vehicle: saline with Tween-80 92 % of control

NC(N)=NCCCOc1ccccc1
inactive: dose: 3.12 mg/kg/injection, schedule: Q01DX009 (ip), vehicle: Klucel (hydroxypropylcellulose) (HPC) 102 % of control | dose: 6.25 mg/kg/injection, schedule: Q01DX009 (ip), vehicle: Klucel (hydroxypropylcellulose) (HPC) 108 % of control | dose: 12.5 mg/kg/injection, schedule: Q01DX009 (ip), vehicle: Klucel (hydroxypropylcellulose) (HPC) 113 % of control | dose: 25.0 mg/kg/injection, schedule: Q01DX009 (ip), vehicle: Klucel (hydroxypropylcellulose) (HPC) 100 % of control | [8] 100 % of control

CCC(C)C(NC(=O)c1ccccc1)C(=O)O (centres undefined)
inactive: [9] 100 % of control | [10] 101 % of control | [11] 95 % of control | [12] 90 % of control and 94 % of control

CO[C@@H](C=O)O[C@@H](C=O)CO
inactive: [9] 100 % of control | [10] 108 % of control | dose: 12.5 mg/kg/injection, schedule: Q04DX003 (ip), vehicle: saline with Tween-80 96 % of control | [11] 103 % of control | [3] 107 % of control | dose: 25.0 mg/kg/injection, schedule: Q04DX003 (ip), vehicle: saline with Tween-80 108 % of control | [12] 124 % of control | [4] 100 % of control | dose: 50.0 mg/kg/injection, schedule: Q04DX003 (ip), vehicle: saline with Tween-80 102 % of control | [13] 104 % of control | dose: 100.0 mg/kg/injection, schedule: Q04DX003 (ip), vehicle: saline with Tween-80 100 % of control

CN1CCN(Cc2nc3cccc4c3c([n+]2[O-])-c2ccccc2-4)CC1
inactive: [10] 101 % of control | [11] 95 % of control | [12] 105 % of control | [14] 112 % of control | dose: 200.0 mg/kg/injection, schedule: Q01DX009 (ip), vehicle: saline with Tween-80 116 % of control

Cc1ccc(S(=O)(=O)N2CCn3ncc(C#N)c32)cc1
inactive: [8] 100 % of control | [5] 103 % of control | [6] 103 % of control | [7] 96 % of control

CC[N+](CC)(CC)CC
inactive: dose: 0.37 mg/kg/injection, schedule: Q01DX009 (ip), vehicle: saline with Tween-80 103 % of control | dose: 0.75 mg/kg/injection, schedule: Q01DX009 (ip), vehicle: saline with Tween-80 100 % of control | dose: 1.5 mg/kg/injection, schedule: Q01DX009 (ip), vehicle: saline with Tween-80 112 % of control | dose: 3.0 mg/kg/injection, schedule: Q01DX009 (ip), vehicle: saline with Tween-80 120 % of control | [1] 123 % of control | dose: 11.0 mg/kg/injection, schedule: Q01DX009 (ip), vehicle: saline 112 % of control | [2] 109 % of control | dose: 16.5 mg/kg/injection, schedule: Q01DX009 (ip), vehicle: saline 108 % of control | dose: 25.0 mg/kg/injection, schedule: Q04DX003 (ip), vehicle: saline 100 % of control | dose: 37.5 mg/kg/injection, schedule: Q01DX009 (ip), vehicle: saline 108 % of control | [4] 90 % of control | [13] 100 % of control

C1CCC(=NN=C2CCCCC2)CC1
inactive: dose: 50.0 mg/kg/injection, schedule: Q04DX003 (sc), vehicle: olive oil, sesame oil, peanut oil 111 % of control | dose: 100.0 mg/kg/injection, schedule: Q04DX003 (sc), vehicle: olive oil, sesame oil, peanut oil 95 % of control | dose: 200.0 mg/kg/injection, schedule: Q04DX003 (sc), vehicle: olive oil, sesame oil, peanut oil 102 % of control

CN=C(N)N/N=C(\C)c1ccc2c(c1)Cc1ccccc1-2
inactive: [10] 110 % of control | [11] 115 % of control | [12] 120 % of control | [14] 112 % of control
